Assay results as given in ChEMBL document CHEMBL5154930, “Design, Synthesis, and Biological Evaluations of DOT1L Peptide Mimetics Targeting the Protein-Protein Interactions between DOT1L and MLL-AF9/MLL-ENL” (J Med Chem, 2022).
Activity calls are given as the source filed them. No cut-off for these calls is given here. Non-standard residues stand in square brackets, D forms with d. Residues, ends and D or L forms follow the SMILES beside them. *: point of attachment. X2 = c1ccc(-c2cn(CC3CCCCC3)c([C@@H]3CCCN3*)n2)cc1; Ala(cPent) = N[C@@H](CC1CCCC1)C(=O)O; Pentanoyl(4-Me) = CC(C)CCC(=O)*; Dap = NC[C@H](N)C(=O)O

What was measured:
[1] = system: KOPN-8; test: cells; conditions: Homo sapiens, KOPN-8, 192 h
Description: Anticancer activity against human KOPN-8 cells harbouring MLL-ENL assessed as inhibition of cell growth treated for 8 days measured by CCK-8 kit method

[2] = Apparent permeability across apical to basolateral side in human Caco-2 cells; type: ADME, cell-based
[3] = Stability in human plasma assessed as compound remaining measured upto 1440 mins by HPLC analysis; type: ADME, cell-free; conditions: read-out: Stability
[4] = biological target: T1, Protein ENL (Homo sapiens, UniProt Q03111); test: Binding affinity to MBP-tagged human recombinant ENL (489 to 559 residues) incubated for 40 mins by measuring fluorescence polarization by microplate reader method
T1 sequence (Q03111 whole entry): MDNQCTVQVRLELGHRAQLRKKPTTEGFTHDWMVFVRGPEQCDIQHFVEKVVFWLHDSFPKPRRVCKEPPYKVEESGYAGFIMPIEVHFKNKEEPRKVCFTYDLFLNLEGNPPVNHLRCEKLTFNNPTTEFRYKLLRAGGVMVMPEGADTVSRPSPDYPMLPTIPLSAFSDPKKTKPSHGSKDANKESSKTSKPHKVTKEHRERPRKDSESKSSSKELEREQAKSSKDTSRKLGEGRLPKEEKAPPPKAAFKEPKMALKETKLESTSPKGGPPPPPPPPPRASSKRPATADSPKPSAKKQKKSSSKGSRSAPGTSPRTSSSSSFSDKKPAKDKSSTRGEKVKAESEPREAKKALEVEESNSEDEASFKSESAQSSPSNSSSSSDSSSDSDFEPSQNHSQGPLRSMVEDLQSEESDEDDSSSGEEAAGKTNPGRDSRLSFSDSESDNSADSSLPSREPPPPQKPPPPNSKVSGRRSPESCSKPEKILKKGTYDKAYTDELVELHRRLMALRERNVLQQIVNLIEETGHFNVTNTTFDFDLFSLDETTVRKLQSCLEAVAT

[5] = system: MOLM-13; test: cells; conditions: Homo sapiens, MOLM-13, 192 h
Description: Anticancer activity against human MOLM-13 cells harbouring MLL-AF9 assessed as inhibition of cell growth treated for 8 days measured by CCK-8 kit method

[6] = system: MOLM-13; test: Inhibition of methylation of H3K79 in human MOLM-13 cells assessed as inhibition of methylation at HOXA5 gene cluster by chromatin immunoprecipitation assay; type: functional, cell-based
[7] = system: MOLM-13; test: Down regulation of CDKN1B gene in human MOLM-13 cells by RNA-sequencing analysis; type: functional, cell-based
[8] = system: MOLM-13; test: Inhibition of MEIS1 expression in human MOLM-13 cells at 0.25 uM by RT-qPCR analysis; type: functional, cell-based; conditions: time 2-6 day, TDE = time-dependent effect
[9] = system: MOLM-13; test: Down regulation of HOXA5 gene in human MOLM-13 cells by RNA-sequencing analysis; type: functional, cell-based
[10] = system: MOLM-13; test: Inhibition of methylation of H3K79 in human MOLM-13 cells assessed as inhibition of methylation at HOXA10 gene cluster by chromatin immunoprecipitation assay; type: functional, cell-based
[11] = system: MOLM-13; test: Down regulation of HPGD gene in human MOLM-13 cells by RNA-sequencing analysis; type: functional, cell-based
[12] = system: MOLM-13; test: Inhibition of methylation of H3K79 in human MOLM-13 cells assessed as inhibition of methylation at HOXA4 gene cluster by chromatin immunoprecipitation assay; type: functional, cell-based
[13] = system: MOLM-13; test: Inhibition of methylation of H3K79 in human MOLM-13 cells assessed as inhibition of methylation at HOXA3 gene cluster by chromatin immunoprecipitation assay; type: functional, cell-based
[14] = system: MOLM-13; test: Inhibition of HOXA9 gene expression in human MOLM-13 cells measured at 0.125 to 0.5 uM after 6 days by RT-qPCR analysis; type: functional, cell-based; conditions: dose 0.125-0.5 µM, time 6.0 day
[15] = system: MOLM-13; test: Down regulation of ARID1B gene in human MOLM-13 cells by RNA-sequencing analysis; type: functional, cell-based
[16] = system: MOLM-13; test: Induction of apoptosis in human MOLM-13 cells at 0.125 to 0.5 uM treated for 7 days by Annexin V-FITC/PI staining based flow cytometry analysis; type: functional, cell-based; conditions: dose 0.125-0.5 µM, time 7.0 day
[17] = system: MOLM-13; test: Down regulation of PBX3 gene in human MOLM-13 cells by RNA-sequencing analysis; type: functional, cell-based
[18] = system: RS4-11; test: Anticancer activity against human RS4-11 cells assessed as inhibition of cell growth treated for 8 days measured by CCK-8 kit method; type: functional, cell-based; conditions: RS4-11, 192 h
[19] = system: MOLM-13; test: Disruption of AF9-mediated DOT1L recruitment in human […] cells assessed as decrease in global H3K79 methylation level at 0.125 uM measured after 8 days by Western blotting analysis; type: cell-based; conditions: time 8.0 day
[20] = system: MOLM-13; test: Down regulation of SSBP2 gene in human MOLM-13 cells by RNA-sequencing analysis; type: functional, cell-based
[21] = system: MOLM-13; test: Down regulation of RUNX1 gene in human MOLM-13 cells by RNA-sequencing analysis; type: functional, cell-based
[22] = system: MOLM-13; test: cells; conditions: Homo sapiens, MOLM-13, 120 h
Description: Anticancer activity against human MOLM-13 cells harbouring MLL-AF9 assessed as inhibition of cell growth treated for 5 days measured by CCK-8 kit method

[23] = system: MOLM-13; test: Down regulation of GBE1 gene in human MOLM-13 cells by RNA-sequencing analysis; type: functional, cell-based
[24] = system: MOLM-13; test: Inhibition of methylation of H3K79 in human MOLM-13 cells assessed as inhibition of methylation at HOXA9 gene cluster by chromatin immunoprecipitation assay; type: functional, cell-based
[25] = system: MOLM-13; test: cells; conditions: Homo sapiens, MOLM-13, 96 h
Description: Anticancer activity against human MOLM-13 cells harbouring MLL-AF9 assessed as inhibition of cell growth treated for 4 days measured by CCK-8 kit method

[26] = system: MOLM-13; test: Inhibition of MEIS1 gene expression in human MOLM-13 cells measured at 0.125 to 0.5 uM after 6 days by RT-qPCR analysis; type: functional, cell-based; conditions: dose 0.125-0.5 µM, time 6.0 day
[27] = system: MOLM-13; test: Inhibition of methylation of H3K79 in human MOLM-13 cells assessed as inhibition of methylation at MEIS1 gene cluster by chromatin immunoprecipitation assay; type: functional, cell-based
[28] = system: MOLM-13; test: Down regulation of JMJD1C gene in human MOLM-13 cells by RNA-sequencing analysis; type: functional, cell-based
[29] = system: MOLM-13; test: Down regulation of […] gene in human MOLM-13 cells by RNA-sequencing analysis; type: functional, cell-based
[30] = system: MOLM-13; test: Down regulation of DCUN1D1 gene in human MOLM-13 cells by RNA-sequencing analysis; type: functional, cell-based
[31] = system: MOLM-13; test: Down regulation of HOXA9 gene in human MOLM-13 cells by RNA-sequencing analysis; type: functional, cell-based
[32] = system: MOLM-13; test: cells; conditions: Homo sapiens, MOLM-13, 168 h
Description: Anticancer activity against human MOLM-13 cells harbouring MLL-AF9 assessed as inhibition of cell growth treated for 7 days measured by CCK-8 kit method

[33] = system: MOLM-13; test: Down regulation of GATA2 gene in human MOLM-13 cells by RNA-sequencing analysis; type: functional, cell-based
[34] = system: MOLM-13; test: Inhibition of methylation of H3K79 in human MOLM-13 cells assessed as inhibition of methylation at MEIS1-AS3 gene cluster by chromatin immunoprecipitation assay; type: functional, cell-based
[35] = system: MOLM-13; test: Down regulation of HOXA3 gene in human MOLM-13 cells by RNA-sequencing analysis; type: functional, cell-based
[36] = system: MOLM-13; test: Down regulation of CDK6 gene in human MOLM-13 cells by RNA-sequencing analysis; type: functional, cell-based
[37] = system: MOLM-13; test: Inhibition of HOXA9 gene expression in human MOLM-13 cells at 0.25 uM by RT-qPCR analysis; type: functional, cell-based; conditions: time 2-6 day, TDE = time-dependent effect
[38] = system: MV4-11; test: Anticancer activity against human MV4-11 cells assessed as inhibition of cell growth treated for 8 days measured by CCK-8 kit method; type: functional, cell-based; conditions: MV4-11, 192 h
[39] = system: MOLM-13; test: Down regulation of MCM2 gene in human MOLM-13 cells by RNA-sequencing analysis; type: functional, cell-based
[40] = system: MOLM-13; test: Down regulation of MEIS1 gene in human MOLM-13 cells by RNA-sequencing analysis; type: functional, cell-based
[41] = system: MOLM-13; test: Inhibition of methylation of H3K79 in human MOLM-13 cells assessed as inhibition of methylation at HOXA2 gene cluster by chromatin immunoprecipitation assay; type: functional, cell-based
[42] = system: MOLM-13; test: Down regulation of HOXA10 gene in human MOLM-13 cells by RNA-sequencing analysis; type: functional, cell-based
[43] = system: MOLM-13; test: Down regulation of MEF2C gene in human MOLM-13 cells by RNA-sequencing analysis; type: functional, cell-based
[44] = system: MOLM-13; test: Inhibition of methylation of H3K79 in human MOLM-13 cells assessed as inhibition of methylation at HOXA-AS2 gene cluster by chromatin immunoprecipitation assay; type: functional, cell-based
[45] = system: MOLM-13; test: Down regulation of AC011043.1 gene in human MOLM-13 cells by RNA-sequencing analysis; type: functional, cell-based
[46] = system: MOLM-13; test: Inhibition of methylation of H3K79 in human MOLM-13 cells assessed as inhibition of methylation at HOXA13 gene cluster by chromatin immunoprecipitation assay; type: functional, cell-based
[47] = system: MOLM-13; test: cells; conditions: Homo sapiens, MOLM-13, 216 h
Description: Anticancer activity against human MOLM-13 cells harbouring MLL-AF9 assessed as inhibition of cell growth treated for 9 days measured by CCK-8 kit method

[48] = system: MOLM-13; test: Inhibition of methylation of H3K79 in human MOLM-13 cells assessed as inhibition of methylation at HOXA11 gene cluster by chromatin immunoprecipitation assay; type: functional, cell-based
[49] = system: MOLM-13; test: Down regulation of SKP2 gene in human MOLM-13 cells by RNA-sequencing analysis; type: functional, cell-based
[50] = system: MOLM-13; test: Down regulation of TUBA1B gene in human MOLM-13 cells by RNA-sequencing analysis; type: functional, cell-based
[51] = system: MOLM-13; test: Down regulation of CDK1 gene in human MOLM-13 cells by RNA-sequencing analysis; type: functional, cell-based
[52] = system: MOLM-13; test: Down regulation of CNOT6L gene in human MOLM-13 cells by RNA-sequencing analysis; type: functional, cell-based
[53] = system: MOLM-13; test: Down regulation of HOXA11 gene in human MOLM-13 cells by RNA-sequencing analysis; type: functional, cell-based
[54] = system: MOLM-13; test: Down regulation of ARID2 gene in human MOLM-13 cells by RNA-sequencing analysis; type: functional, cell-based
[55] = system: MOLM-13; test: Inhibition of methylation of H3K79 in human MOLM-13 cells assessed as inhibition of methylation at HOXA7 gene cluster by chromatin immunoprecipitation assay; type: functional, cell-based
[56] = system: MOLM-13; test: Inhibition of methylation of H3K79 in human MOLM-13 cells assessed as inhibition of methylation at HOXA1 gene cluster by chromatin immunoprecipitation assay; type: functional, cell-based
[57] = system: K562; test: Anticancer activity against human K562 cells assessed as inhibition of cell growth treated for 8 days measured by CCK-8 kit method; type: functional, cell-based; conditions: K562, 192 h
[58] = system: MOLM-13; test: Inhibition of methylation of H3K79 in human MOLM-13 cells assessed as inhibition of methylation at […] gene cluster by chromatin immunoprecipitation assay; type: functional, cell-based
[59] = system: MOLM-13; test: Inhibition of methylation of H3K79 in human MOLM-13 cells assessed as inhibition of methylation at HOXA6 gene cluster by chromatin immunoprecipitation assay; type: functional, cell-based
[60] = system: MOLM-13; test: cells; conditions: Homo sapiens, MOLM-13, 144 h
Description: Anticancer activity against human MOLM-13 cells harbouring MLL-AF9 assessed as inhibition of cell growth treated for 6 days measured by CCK-8 kit method

CC(C)CCC(=O)N1CCC[C@H]1C(=O)N[C@H](C(=O)N[C@@H](CN)C(=O)N[C@@H](CC1CCCC1)C(=O)N1CCC[C@H]1c1nc(-c2ccccc2)cn1CC1CCCCC1)C(C)C ({Pentanoyl(4-Me)}-PV[Dap][Ala(cPent)]-X2)
IC50 [1]: 2210 nM
Papp A→B [2]: 0.73 ×10⁻⁶ cm/s
remaining at 24 h [3]: 94%
Ki [4]: 240 nM
IC50 [5]: 3200 nM

CC(C)N(C[C@H]1O[C@@H](n2cnc3c(N)ncnc32)[C@H](O)[C@@H]1O)[C@H]1C[C@@H](CCc2nc3cc(C(C)(C)C)ccc3[nH]2)C1 [PINOMETOSTAT]
inhibition [6]: Active
Activity [7]: Active
inhibition [8]: Tde
Activity [9]: Active
inhibition [10]: Active
Activity [11]: Active
inhibition [12]: Active
inhibition [13]: Active
inhibition [14]: Active
IC50 [1]: 60 nM
Activity [15]: Active
Activity [16]: Active
Activity [17]: Active
IC50 [18]: 70 nM
inhibition [19]: 100%
Activity [20]: Active
Activity [21]: Active
IC50 [22]: 97 nM
Activity [23]: Active
inhibition [24]: Active
IC50 [25]: 227 nM
inhibition [26]: Active
inhibition [27]: Active
Activity [28]: Active
Activity [29]: Active
Activity [30]: Active
Activity [31]: Active
IC50 [32]: 59 nM
Activity [33]: Active
inhibition [34]: Active
Activity [35]: Active
Activity [36]: Active
inhibition [37]: Tde
IC50 [38]: 50 nM
Activity [39]: Active
Activity [40]: Active
inhibition [41]: Active
Activity [42]: Active
Activity [43]: Active
inhibition [44]: Active
Activity [45]: Active
IC50 [5]: 30 nM
inhibition [46]: Active
IC50 [47]: 21 nM
inhibition [48]: Active
Activity [49]: Active
Activity [50]: Active
Activity [51]: Active
Activity [52]: Active
Activity [53]: Active
Activity [54]: Active
inhibition [55]: Active
inhibition [56]: Active
IC50 [57]: 31000 nM
inhibition [58]: Active
inhibition [59]: Active
IC50 [60]: 73 nM
